Measured values: patent US12103919B2, “3-(5-oxy)-1-oxoisoindolin-2-yl)piperidine-2,6-dione derivatives and uses thereof” (NOVARTIS AG, priority 2021, dated 2024)
Where two headings read alike, the source gives them in different places.

Molecular target: T1, WIZ (Homo sapiens, UniProt O95785+Q96SW2)
T1 construct: expressed in transfected cells
Assay: Quantification of WIZ protein levels in HiBit tag fusion protein assay (293T cells)
Format: cell-based
Design: Dmax: dose or concentration left out as unconfirmed
Conditions: for remaining activity at 25 µM / Dmax at 25 µM / Dmax: HEK-293T; for remaining activity at 25 µM: read-out: WIZ Amax; for DC50: WIZ HiBit assay in 293T cells, about 18 hours, 10-point 5-fold dilution, top 25 μM, read-out: WIZ AC50; for Dmax at 25 µM: 100 − Amax; for Dmax at 25 µM / Dmax: read-out: % degradation of WIZ (100 − Amax)
Outline: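 293T cells stably carrying a single-copy HiBit-WIZ fusion were exposed to compounds for about 18 hours at 37° C., top concentration 25 μM, 10-point 5-fold series. Lysates were complemented with LgBit and luminescence was read. Amax is the DMSO-normalized, curve-fitted percentage of WIZ-HiBit remaining at 25 uM.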

[1] = DMSO-normalized, curve-fitted percentage of WIZ-HiBit remaining at 25 uM

T1 sequence (O95785 whole entry): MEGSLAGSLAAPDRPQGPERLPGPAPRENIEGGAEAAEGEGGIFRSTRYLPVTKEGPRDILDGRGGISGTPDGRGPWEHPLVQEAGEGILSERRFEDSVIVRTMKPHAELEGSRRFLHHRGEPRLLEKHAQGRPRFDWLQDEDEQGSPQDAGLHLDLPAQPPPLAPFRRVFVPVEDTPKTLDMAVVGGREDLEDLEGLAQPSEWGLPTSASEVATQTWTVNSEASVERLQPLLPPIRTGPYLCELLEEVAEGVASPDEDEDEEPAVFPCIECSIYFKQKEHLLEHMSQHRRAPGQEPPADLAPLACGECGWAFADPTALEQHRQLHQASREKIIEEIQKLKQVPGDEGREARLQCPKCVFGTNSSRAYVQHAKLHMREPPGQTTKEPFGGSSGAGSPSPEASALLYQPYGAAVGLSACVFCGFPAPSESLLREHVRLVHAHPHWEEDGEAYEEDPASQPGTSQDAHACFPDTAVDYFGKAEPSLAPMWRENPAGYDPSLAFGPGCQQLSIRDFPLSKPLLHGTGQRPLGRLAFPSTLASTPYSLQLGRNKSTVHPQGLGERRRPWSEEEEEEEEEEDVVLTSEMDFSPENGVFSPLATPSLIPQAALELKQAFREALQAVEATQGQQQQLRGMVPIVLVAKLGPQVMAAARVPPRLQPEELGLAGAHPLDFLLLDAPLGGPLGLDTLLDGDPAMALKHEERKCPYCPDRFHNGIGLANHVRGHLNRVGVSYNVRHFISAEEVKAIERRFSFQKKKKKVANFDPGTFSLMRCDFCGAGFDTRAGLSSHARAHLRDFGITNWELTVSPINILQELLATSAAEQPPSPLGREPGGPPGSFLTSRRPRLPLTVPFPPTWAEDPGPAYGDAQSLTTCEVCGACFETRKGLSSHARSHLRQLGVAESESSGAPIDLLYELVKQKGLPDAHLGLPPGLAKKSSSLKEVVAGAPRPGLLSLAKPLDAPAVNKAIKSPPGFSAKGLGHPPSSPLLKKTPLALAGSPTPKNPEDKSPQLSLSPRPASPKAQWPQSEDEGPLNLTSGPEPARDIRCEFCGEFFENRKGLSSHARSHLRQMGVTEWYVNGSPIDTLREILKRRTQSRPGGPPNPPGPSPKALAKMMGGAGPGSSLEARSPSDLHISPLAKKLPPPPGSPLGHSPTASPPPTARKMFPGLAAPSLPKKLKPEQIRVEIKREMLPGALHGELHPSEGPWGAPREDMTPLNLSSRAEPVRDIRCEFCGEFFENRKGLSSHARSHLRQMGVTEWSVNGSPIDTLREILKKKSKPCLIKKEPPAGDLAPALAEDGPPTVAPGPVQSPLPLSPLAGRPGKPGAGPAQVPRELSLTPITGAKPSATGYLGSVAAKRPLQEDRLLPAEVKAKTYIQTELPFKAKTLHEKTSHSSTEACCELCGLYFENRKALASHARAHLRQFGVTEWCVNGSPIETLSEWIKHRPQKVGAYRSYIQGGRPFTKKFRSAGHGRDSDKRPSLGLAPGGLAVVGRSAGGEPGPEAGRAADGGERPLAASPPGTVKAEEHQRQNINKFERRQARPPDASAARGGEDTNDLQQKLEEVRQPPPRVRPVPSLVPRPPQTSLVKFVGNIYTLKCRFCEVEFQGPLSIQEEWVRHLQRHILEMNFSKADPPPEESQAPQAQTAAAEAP
T1 sequence (Q96SW2 whole entry): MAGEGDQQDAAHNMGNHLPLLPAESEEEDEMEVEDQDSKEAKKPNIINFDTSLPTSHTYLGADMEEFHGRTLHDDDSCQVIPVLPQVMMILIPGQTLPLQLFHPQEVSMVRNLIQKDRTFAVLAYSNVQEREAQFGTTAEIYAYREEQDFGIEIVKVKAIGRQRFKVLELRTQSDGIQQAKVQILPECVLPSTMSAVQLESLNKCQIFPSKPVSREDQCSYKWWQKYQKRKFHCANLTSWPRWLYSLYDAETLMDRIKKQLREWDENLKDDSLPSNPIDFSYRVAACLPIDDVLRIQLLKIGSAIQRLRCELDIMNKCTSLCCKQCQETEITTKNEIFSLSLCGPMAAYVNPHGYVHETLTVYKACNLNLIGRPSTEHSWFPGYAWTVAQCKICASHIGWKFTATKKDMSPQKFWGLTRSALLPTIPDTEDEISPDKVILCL
T1 sequence (Q16531 whole entry partner): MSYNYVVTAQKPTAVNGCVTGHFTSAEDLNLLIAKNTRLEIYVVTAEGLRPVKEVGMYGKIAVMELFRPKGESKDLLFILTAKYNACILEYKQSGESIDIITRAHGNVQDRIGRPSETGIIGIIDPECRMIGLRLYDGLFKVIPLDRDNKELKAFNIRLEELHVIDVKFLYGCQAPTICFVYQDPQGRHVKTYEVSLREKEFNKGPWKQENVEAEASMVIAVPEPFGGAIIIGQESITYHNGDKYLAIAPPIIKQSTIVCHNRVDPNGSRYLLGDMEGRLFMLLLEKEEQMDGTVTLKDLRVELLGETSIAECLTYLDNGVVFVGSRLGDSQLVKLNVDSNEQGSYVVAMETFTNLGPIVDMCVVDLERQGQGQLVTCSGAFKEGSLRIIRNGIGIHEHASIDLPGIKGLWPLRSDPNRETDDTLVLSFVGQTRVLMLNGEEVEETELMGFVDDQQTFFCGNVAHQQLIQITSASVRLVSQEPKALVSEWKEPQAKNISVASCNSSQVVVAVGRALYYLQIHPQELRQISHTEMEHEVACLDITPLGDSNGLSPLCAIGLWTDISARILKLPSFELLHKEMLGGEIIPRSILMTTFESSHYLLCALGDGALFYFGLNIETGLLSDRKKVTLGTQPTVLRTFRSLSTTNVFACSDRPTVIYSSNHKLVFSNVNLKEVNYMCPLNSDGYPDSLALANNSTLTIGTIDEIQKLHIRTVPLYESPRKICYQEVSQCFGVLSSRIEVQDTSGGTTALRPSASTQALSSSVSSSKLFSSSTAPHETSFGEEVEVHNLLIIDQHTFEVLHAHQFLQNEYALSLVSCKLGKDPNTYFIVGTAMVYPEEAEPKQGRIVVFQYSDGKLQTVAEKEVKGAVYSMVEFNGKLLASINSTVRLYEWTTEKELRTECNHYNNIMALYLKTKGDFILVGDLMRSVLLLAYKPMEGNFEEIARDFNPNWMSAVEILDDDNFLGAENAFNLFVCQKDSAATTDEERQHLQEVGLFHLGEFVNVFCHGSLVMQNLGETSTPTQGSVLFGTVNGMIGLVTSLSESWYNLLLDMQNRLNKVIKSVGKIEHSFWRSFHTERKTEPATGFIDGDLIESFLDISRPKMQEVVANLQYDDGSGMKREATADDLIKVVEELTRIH

Compound	remaining activity at 25 µM [1] [%]	DC50 [nM]	Dmax at 25 µM [%]	Dmax [%]	remaining activity at 25 µM [%]
CCO[C@@H]1C[C@@H](Oc2ccc3c(c2)CN(C2CCC(=O)NC2=O)C3=O)CN(C(C)=O)C1 (stereo partly drawn) [Example 70, 3-(5-(((3R,5R)-1-acetyl-5-ethoxypiperidin-3-yl)oxy)-1-oxoisoindolin-2-yl)piperidine-2,6-dione]	107	> 25000	–	–	–
CCO[C@@H]1C[C@@H](Oc2ccc3c(c2)CN(C2CCC(=O)NC2=O)C3=O)CN(S(C)(=O)=O)C1 (stereo partly drawn) [Example 71, 3-(5-(((3R,5R)-5-ethoxy-1-(methylsulfonyl)piperidin-3-yl)oxy)-1-oxoisoindolin-2-yl)piperidine-2,6-dione]	39	45.3	61	–	–
CCO[C@@H]1C[C@@H](Oc2ccc3c(c2)CN(C2CCC(=O)NC2=O)C3=O)CN(CC(C)C)C1 (stereo partly drawn) [Example 72, 3-(5-(((3R,5R)-5-ethoxy-1-isobutylpiperidin-3-yl)oxy)-1-oxoisoindolin-2-yl)piperidine-2,6-dione]	40.1	41.5	59.9	–	–
CCO[C@@H]1C[C@@H](Oc2ccc3c(c2)CN(C2CCC(=O)NC2=O)C3=O)CN(C2CCC2)C1 (stereo partly drawn) [Example 73, 3-(5-(((3R,5R)-1-cyclobutyl-5-ethoxypiperidin-3-yl)oxy)-1-oxoisoindolin-2-yl)piperidine-2,6-dione]	–	23.8	–	62.8	37.2
CCO[C@@H]1C[C@@H](Oc2ccc3c(c2)CN(C2CCC(=O)NC2=O)C3=O)CN(C(C)C)C1 (stereo partly drawn) [Example 74, 3-(5-(((3R,5R)-5-ethoxy-1-isopropylpiperidin-3-yl)oxy)-1-oxoisoindolin-2-yl)piperidine-2,6-dione]	21.9	8.9	78.1	–	–
C[C@@H]1C[C@@H](Oc2ccc3c(c2)CN(C2CCC(=O)NC2=O)C3=O)CN(C)C1 (stereo partly drawn) [Example 75-2, 3-(5-(((3R,5R)-1,5-dimethylpiperidin-3-yl)oxy)-1-oxoisoindolin-2-yl)piperidine-2,6-dione]	–	4	–	83.5	16.5
CC(C)N1C[C@H](C)C[C@@H](Oc2ccc3c(c2)CN(C2CCC(=O)NC2=O)C3=O)C1 (stereo partly drawn) [Example 77, 3-(5-(((3R,5R)-1-isopropyl-5-methylpiperidin-3-yl)oxy)-1-oxoisoindolin-2-yl)piperidine-2,6-dione]	13.6	1.1	86.5	–	–
C[C@@H]1C[C@@H](Oc2ccc3c(c2)CN(C2CCC(=O)NC2=O)C3=O)CN(C2CCC2)C1 (stereo partly drawn) [Example 78, 3-(5-(((3R,5R)-1-cyclobutyl-5-methylpiperidin-3-yl)oxy)-1-oxoisoindolin-2-yl)piperidine-2,6-dione]	–	0.5	–	85.7	14.3
CC(C)CN1C[C@H](C)C[C@@H](Oc2ccc3c(c2)CN(C2CCC(=O)NC2=O)C3=O)C1 (stereo partly drawn) [Example 79, 3-(5-(((3R,5R)-1-isobutyl-5-methylpiperidin-3-yl)oxy)-1-oxoisoindolin-2-yl)piperidine-2,6-dione]	17.3	1.7	82.7	–	–
C[C@@H]1C[C@@H](Oc2ccc3c(c2)CN(C2CCC(=O)NC2=O)C3=O)CN(S(C)(=O)=O)C1 (stereo partly drawn) [Example 80, 3-(5-(((3R,5R)-5-methyl-1-(methylsulfonyl)piperidin-3-yl)oxy)-1-oxoisoindolin-2-yl)piperidine-2,6-dione]	28.6	23.4	71.4	–	–
CC(C)N1C[C@H](Oc2ccc3c(c2)CN(C2CCC(=O)NC2=O)C3=O)CC[C@@H]1C (stereo partly drawn) [Example 81, 3-(5-(((3R,6S)-1-isopropyl-6-methylpiperidin-3-yl)oxy)-1-oxoisoindolin-2-yl)piperidine-2,6-dione]	10.7	2	89.3	–	–
C[C@H]1CC[C@@H](Oc2ccc3c(c2)CN(C2CCC(=O)NC2=O)C3=O)CN1C1CCC1 (stereo partly drawn) [Example 82, 3-(5-(((3R,6S)-1-cyclobutyl-6-methylpiperidin-3-yl)oxy)-1-oxoisoindolin-2-yl)piperidine-2,6-dione]	–	0.5	–	85	15
CCOC(=O)N1C[C@H](Oc2ccc3c(c2)CN(C2CCC(=O)NC2=O)C3=O)CC[C@@H]1C (stereo partly drawn) [Example 83, ethyl (2S,5R)-5-((2-(2,6-dioxopiperidin-3-yl)-1-oxoisoindolin-5-yl)oxy)-2-methylpiperidine-1-carboxylate]	96.8	> 25000	3.24	–	–
CNC(=O)N1C[C@H](Oc2ccc3c(c2)CN(C2CCC(=O)NC2=O)C3=O)CC[C@@H]1C (stereo partly drawn) [Example 84, (2S,5R)-5-((2-(2,6-dioxopiperidin-3-yl)-1-oxoisoindolin-5-yl)oxy)-N,2-dimethylpiperidine-1-carboxamide]	81.7	1170	18.3	–	–
C[C@H]1CC[C@@H](Oc2ccc3c(c2)CN(C2CCC(=O)NC2=O)C3=O)CN1S(C)(=O)=O (stereo partly drawn) [Example 85, 3-(5-(((3R,6S)-6-methyl-1-(methylsulfonyl)piperidin-3-yl)oxy)-1-oxoisoindolin-2-yl)piperidine-2,6-dione]	65.7	67.2	34.3	–	–
CC(=O)N1C[C@H](Oc2ccc3c(c2)CN(C2CCC(=O)NC2=O)C3=O)CC[C@@H]1C (stereo partly drawn) [Example 86, 3-(5-(((3R,6S)-1-acetyl-6-methylpiperidin-3-yl)oxy)-1-oxoisoindolin-2-yl)piperidine-2,6-dione]	76	> 25000	24	–	–
CCC[C@H]1CC[C@@H](Oc2ccc3c(c2)CN(C2CCC(=O)NC2=O)C3=O)CN1 (stereo partly drawn) [Example 87-1, 3-(1-oxo-5-(((3R,6S)-6-propylpiperidin-3-yl)oxy)isoindolin-2-yl)piperidine-2,6-dione]	–	35.9	–	71.4	28.6
CCC[C@H]1CC[C@@H](Oc2ccc3c(c2)CN(C2CCC(=O)NC2=O)C3=O)CN1CC (stereo partly drawn) [Example 87-2, 3-(5-(((3R,6S)-1-ethyl-6-propylpiperidin-3-yl)oxy)-1-oxoisoindolin-2-yl)piperidine-2,6-dione]	–	0.6	–	89.7	10.3
CC1(C)CCC(Oc2ccc3c(c2)CN(C2CCC(=O)NC2=O)C3=O)CN1 (centres unmarked) [Example 88-1, 3-(5-((6,6-dimethylpiperidin-3-yl)oxy)-1-oxoisoindolin-2-yl)piperidine-2,6-dione]	–	134	–	50	50
CCN1CC(Oc2ccc3c(c2)CN(C2CCC(=O)NC2=O)C3=O)CCC1(C)C (centres unmarked) [Example 88-2, 3-(5-((1-ethyl-6,6-dimethylpiperidin-3-yl)oxy)-1-oxoisoindolin-2-yl)piperidine-2,6-dione]	–	0.7	–	79.5	20.5
